According to article PMC9022596, “Convergent Evolution of Antibiotic Tolerance in Patients with Persistent Methicillin-Resistant Staphylococcus aureus Bacteremia” (Infection and Immunity, 2022):
Values joined by “and” are separate entries in the source; they are usually repeats but may differ in a detail not shown here. Identical values can stand only once.

Columns and labels:
Test in all cases: microbe, parasite or virus in culture
[1] = tested on: T1, Staphylococcus aureus PB0601; design: Broth microdilution MIC in cation-adjusted MHB-Ca2+, growth inhibition per EUCAST reading; conditions: PB0601, 16 h
T1 construct: PB0601
Method: (§1) MICs were measured in cation-adjusted Mueller-Hinton broth (MHB) supplemented with 50 μg/mL CaCl2 (MHB-Ca^2+) via broth microdilution in 96-well plates with an inoculum of ∼5 × 10^5 CFU per mL. Antibiotic test concentrations ranged from 0.0625 μg/mL to 32 μg/mL by 2-fold dilutions. Plates were incubated at 37°C for 16 h without shaking, and results were interpreted in accordance with European Committee on Antimicrobial Susceptibility Testing reading guidelines ([72]). S. aureus ATCC 29213 was used as a quality-control strain. TCA cycle defects have been shown previously to cause antibiotic tolerance in laboratory strains of methicillin-sensitive S. aureus (MSSA) ([13], [16]). […] To test this hypothesis, we complemented three of the clinical isolates harboring loss-of-function citZ mutations with either wild-type citZ (pOS1-citZ) or empty vector (pOS1) and then measured bacterial survival through time after exposure to ceftaroline, daptomycin, vancomycin, or the combination of daptomycin plus ceftaroline (Fig. 3). These antibiotics were chosen for their clinical relevance in the treatment of severe MRSA infection.

[2] = tested on: T2, Staphylococcus aureus PB0605; design: Broth microdilution MIC in cation-adjusted MHB-Ca2+, growth inhibition per EUCAST reading; conditions: PB0605, 16 h
T2 construct: PB0605
Method: as §1

[3] = tested on: T3, Staphylococcus aureus PB0115; design: Broth microdilution MIC in cation-adjusted MHB-Ca2+, growth inhibition per EUCAST reading; conditions: PB0115, 16 h
T3 construct: PB0115
Method: as §1

[4] = tested on: T4, Staphylococcus aureus PB0113; design: Broth microdilution MIC in cation-adjusted MHB-Ca2+, growth inhibition per EUCAST reading; conditions: PB0113, 16 h
T4 construct: PB0113
Method: as §1

[5] = tested on: T5, Staphylococcus aureus PB0903; design: Broth microdilution MIC in cation-adjusted MHB-Ca2+, growth inhibition per EUCAST reading; conditions: PB0903, 16 h
T5 construct: PB0903
Method: as §1

[6] = tested on: T6, Staphylococcus aureus PB1407; design: Broth microdilution MIC in cation-adjusted MHB-Ca2+, growth inhibition per EUCAST reading; conditions: PB1407, 16 h
T6 construct: PB1407
Method: as §1

[7] = tested on: T7, Staphylococcus aureus PB0805; design: Broth microdilution MIC in cation-adjusted MHB-Ca2+, growth inhibition per EUCAST reading; conditions: PB0805, 16 h
T7 construct: PB0805
Method: as §1

[8] = tested on: T8, Staphylococcus aureus PB1801; design: Broth microdilution MIC in cation-adjusted MHB-Ca2+, growth inhibition per EUCAST reading; conditions: PB1801, 16 h
T8 construct: PB1801
Method: as §1

[9] = tested on: T9, Staphylococcus aureus PB0905; design: Broth microdilution MIC in cation-adjusted MHB-Ca2+, growth inhibition per EUCAST reading; conditions: PB0905, 16 h
T9 construct: PB0905
Method: as §1

[10] = tested on: T10, Staphylococcus aureus PB0603; design: species or system Staphylococcus aureus clinical blood isolates and ATCC 29213; Broth microdilution MIC in cation-adjusted Mueller-Hinton broth with 50 ug/mL CaCl2, EUCAST reading, 37 C; conditions: PB0603, 16 h, replicate MIC, MHB + 50 ug/mL CaCl2
T10 construct: PB0603
Method: (§2) MICs were measured in cation-adjusted Mueller-Hinton broth (MHB) supplemented with 50 μg/mL CaCl2 (MHB-Ca^2+) via broth microdilution in 96-well plates with an inoculum of ∼5 × 10^5 CFU per mL. Antibiotic test concentrations ranged from 0.0625 μg/mL to 32 μg/mL by 2-fold dilutions. Plates were incubated at 37°C for 16 h without shaking, and results were interpreted in accordance with European Committee on Antimicrobial Susceptibility Testing reading guidelines ([72]). S. aureus ATCC 29213 was used as a quality-control strain.

[11] = tested on: T11, Staphylococcus aureus PB0409; design: species or system Staphylococcus aureus clinical blood isolates and ATCC 29213; Broth microdilution MIC in cation-adjusted Mueller-Hinton broth with 50 ug/mL CaCl2, EUCAST reading, 37 C; conditions: PB0409, 16 h, replicate MIC, MHB + 50 ug/mL CaCl2
T11 construct: PB0409
Method: as §2

[12] = tested on: T12, Staphylococcus aureus PB1512; design: species or system Staphylococcus aureus clinical blood isolates and ATCC 29213; Broth microdilution MIC in cation-adjusted Mueller-Hinton broth with 50 ug/mL CaCl2, EUCAST reading, 37 C; conditions: PB1512, 16 h, replicate MIC, MHB + 50 ug/mL CaCl2
T12 construct: PB1512
Method: as §2

[13] = tested on: T13, Staphylococcus aureus PB1406; design: species or system Staphylococcus aureus clinical blood isolates and ATCC 29213; Broth microdilution MIC in cation-adjusted Mueller-Hinton broth with 50 ug/mL CaCl2, EUCAST reading, 37 C; conditions: PB1406, 16 h, replicate MIC, MHB + 50 ug/mL CaCl2
T13 construct: PB1406
Method: as §2

[14] = tested on: T14, Staphylococcus aureus PB1101; design: species or system Staphylococcus aureus clinical blood isolates and ATCC 29213; Broth microdilution MIC in cation-adjusted Mueller-Hinton broth with 50 ug/mL CaCl2, EUCAST reading, 37 C; conditions: PB1101, 16 h, replicate MIC, MHB + 50 ug/mL CaCl2
T14 construct: PB1101
Method: as §2

[15] = tested on: T15, Staphylococcus aureus PB0102; design: species or system Staphylococcus aureus clinical blood isolates and ATCC 29213; Broth microdilution MIC in cation-adjusted Mueller-Hinton broth with 50 ug/mL CaCl2, EUCAST reading, 37 C; conditions: PB0102, 16 h, replicate MIC, MHB + 50 ug/mL CaCl2
T15 construct: PB0102
Method: as §2

| Compound | MIC ([1]; replicate 1) [µg/mL] | MIC ([1]; replicate 2) [µg/mL] | MIC ([2]; replicate 1) [µg/mL] | MIC ([2]; replicate 2) [µg/mL] | MIC ([3]; replicate 1) [µg/mL] | MIC ([3]; replicate 2) [µg/mL] | MIC ([4]; replicate 1) [µg/mL] | MIC ([4]; replicate 2) [µg/mL] | MIC ([5]; replicate 1) [µg/mL] | MIC ([5]; replicate 2) [µg/mL] | MIC ([6]; replicate 1) [µg/mL] | MIC ([6]; replicate 2) [µg/mL] | MIC ([7]; replicate 1) [µg/mL] | MIC ([7]; replicate 2) [µg/mL] | MIC ([8]; replicate 1) [µg/mL] | MIC ([8]; replicate 2) [µg/mL] | MIC ([9]; replicate 1) [µg/mL] | MIC ([9]; replicate 2) [µg/mL] | MIC [10] | MIC [11] [µg/mL] | also measured |
| --- | --- | --- | --- | --- | --- | --- | --- | --- | --- | --- | --- | --- | --- | --- | --- | --- | --- | --- | --- | --- | --- |
| CCCCCCCCCC(=O)N[C@@H](Cc1c[nH]c2ccccc12)C(=O)N[C@H](CC(N)=O)C(=O)N[C@@H](CC(=O)O)C(=O)N[C@@H]1C(=O)NCC(=O)N[C@@H](CCCN)C(=O)N[C@@H](CC(=O)O)C(=O)N[C@H](C)C(=O)N[C@@H](CC(=O)O)C(=O)NCC(=O)N[C@H](CO)C(=O)N[C@@H]([C@H](C)CC(=O)O)C(=O)N[C@@H](CC(=O)c2ccccc2N)C(=O)O[C@@H]1C [Daptomycin] | 1 | 1 | 1 | 2 | 2 | 2 | 1 | 1 | 2 | 2 | 2 | 2 | 1 | 1 | 2 | 2 | 2 | 2 | 2 µg/mL | 1 | MIC [12]: 1 µg/mL; MIC [13]: 1 µg/mL; MIC [14]: 2 µg/mL; MIC [15]: 2 µg/mL |
| CCO/N=C(\C(=O)N[C@@H]1C(=O)N2C(C(=O)[O-])=C(Sc3nc(-c4cc[n+](C)cc4)cs3)CS[C@H]12)c1nsc(N)n1 [Ceftaroline] | 0.25 | 0.25 | 0.25 | 0.25 | 0.5 | 0.5 | 0.5 | 0.5 | 0.5 | 0.5 | 0.5 | 0.5 | 0.5 | 0.5 | 0.5 | 0.5 | 0.5 | 0.5 | 0.25 µg/mL | 0.5 | MIC [12]: 0.5 µg/mL; MIC [13]: 0.25 µg/mL; MIC [14]: 0.5 µg/mL; MIC [15]: 0.5 µg/mL |
| CC(=O)NC[C@H]1CN(c2ccc(N3CCOCC3)c(F)c2)C(=O)O1 [Linezolid] | 4 | 4 | 4 | 4 | 4 | 4 | 4 | 4 | 4 | 4 | 4 | 4 | 4 | 4 | 4 | 4 | 4 | 4 | 4 µg/mL | 4 | MIC [12]: 4 µg/mL; MIC [13]: 4 µg/mL; MIC [14]: 4 µg/mL; MIC [15]: 4 µg/mL |
| CN[C@H](CC(C)C)C(=O)N[C@H]1C(=O)N[C@@H](CC(N)=O)C(=O)N[C@H]2C(=O)N[C@H]3C(=O)N[C@H](C(=O)N[C@H](C(=O)O)c4cc(O)cc(O)c4-c4cc3ccc4O)[C@H](O)c3ccc(c(Cl)c3)Oc3cc2cc(c3O[C@@H]2O[C@H](CO)[C@@H](O)[C@H](O)[C@H]2O[C@H]2C[C@](C)(N)[C@H](O)[C@H](C)O2)Oc2ccc(cc2Cl)[C@H]1O [Vancomycin] | 2 | 2 | 2 | 2 | 2 | 2 | 2 | 2 | 2 | 2 | 2 | 2 | 1 | 1 | 2 | 2 | 2 | 2 | 4 µg/mL and 2 µg/mL | 2 | MIC [12]: 2 µg/mL; MIC [13]: 2 µg/mL; MIC [14]: 2 µg/mL; MIC [15]: 2 µg/mL |
